Assay results: paper PMC8963105, “A Novel Modulator of the Renin–Angiotensin System, Benzoylaconitine, Attenuates Hypertension by Targeting ACE/ACE2 in Enhancing Vasodilation and Alleviating Vascular Inflammation” (Frontiers in Pharmacology, 2022)

Columns and labels:
total NO = total NO in serum of SHRs; assay type: in vivo, rat; settings: oral 14 days, dose-dependent
Text: All three MDAs (BAC, BMC, and BHC) were purchased from Nature-Standard Co., Ltd. (Shanghai, China) and their purities were all over 98%. The anti-hypertensive effects of MDAs were studied in both acute and chronic experiments. The 16-week-old SHRs were used in animal experiments, and each group had six rats. In the acute experiment, drug administration was via i.v. injection. For i.v. injection, the animals were randomly assigned into four groups: vehicle (0.1% DMSO–0.9% salt solution, n = 6), low-dose group (0.6 mg kg^−1 body weight, n = 6), medium-dose group (2 mg kg^−1 body weight, n = 6), and high-dose group (6 mg kg^−1 body weight, n = 6). The drug was administered using a venous catheter. […] Blood pressure was recorded in real time.
Total NO levels in serum obtained from SHRs treated with vehicle, BAC, or captopril for 14 days were quantified by using total nitric oxide assay kit (Beyotime, Shanghai, China) as described previously. The absorbance was measured using a microplate reader (Thermo Fisher Scientific) at 540 nm and calculated according to the standard curve. […]

ACE2 [1] = test: ACE2 protein expression in HUVECs (Western blot, immunofluorescence); assay type: cell-based, human; settings: HUVECs, 25, 50, 100 μM, 24 h
Text: Human umbilical vein endothelial cells (HUVECs) were isolated from umbilical cords as previously described ([Jaffe et al., 1973]). They were purchased from ATCC (cat# CRL-1444, Manassas, VA, United States) and cultured in endothelial cell medium (ECM, ScienCell, Carlsbad, CA, United States) supplemented with 5% FBS, 1% endothelial cell growth supplement, and 1% antibiotics (Sigma, St. Louis, MO, United States). Cells harvested between the third and tenth passages were used in the experiments. Cells were cultured until they were ∼80% confluent. […]
After treatment with different concentrations of BAC (Control, DMSO, 25, 50, and 100 μM, dissolved in 0.1% DMSO–DMEM) for 24 h, the cells were washed with PBS three times, fixed in 4% paraformaldehyde for 20 min, permeabilized with 0.3% Triton X-100 for 20 min, and then blocked with 5% BSA for 30 min at room temperature of 25°C. […] The samples were analyzed using a confocal laser scanning microscope (Zeiss LSM 510 META, Oberkochen, Germany).
(§1) The cell samples and tissue sample were collected and placed in ice rapidly. […] Protein concentration in cell lysates was measured using a Bio-Rad DC Protein Assay Kit […]. […]

[2] = system: spontaneously hypertension rats (SHRs); test: chronic experiment: blood pressure, heart rate and aorta histology after 14-day oral administration in SHRs; assay type: in vivo, rat; settings: for DBP: 14 days (SHRs 130 ± 5); for MAP: 14 days (SHRs 151 ± 5); for SBP: 14 days (SHRs 172 ± 6)
Procedure: The SHRs were surgically implanted with a catheter via the left femoral artery, vein, and stomach after anesthetizing with 2% pentobarbital sodium (40 mg kg^−1 i.p.,). A pressure sensor was inserted into the terminal of the arterial catheter and connected to a PowerLab system (ADInstruments, New South Wales, Australia) for real-time blood pressure monitoring.
(§2) All three MDAs (BAC, BMC, and BHC) were purchased from Nature-Standard Co., Ltd. (Shanghai, China) and their purities were all over 98%. The anti-hypertensive effects of MDAs were studied in both acute and chronic experiments. The 16-week-old SHRs were used in animal experiments, and each group had six rats. In the acute experiment, drug administration was via i.v. injection. For i.v. injection, the animals were randomly assigned into four groups: vehicle (0.1% DMSO–0.9% salt solution, n = 6), low-dose group (0.6 mg kg^−1 body weight, n = 6), medium-dose group (2 mg kg^−1 body weight, n = 6), and high-dose group (6 mg kg^−1 body weight, n = 6). The drug was administered using a venous catheter. In chronic experiments, the animals were randomly assigned into five groups: vehicle (5% Tween 80–0.9% salt solution, n = 6), captopril group (5 mg kg^−1 body weight, n = 6), low-dose group (3 mg kg^−1 body weight, n = 6), medium-dose group (10 mg kg^−1 body weight, n = 6), and high-dose group (30 mg kg^−1 body weight, n = 6). Oral administration with drug or 5% Tween 80–0.9% salt solution was carried out once a day, and continued for 14 days. The drugs were dissolved in 0.1% DMSO–0.9% salt solution for intravenous injection and in 5% Tween 80–0.9% salt solution for oral administration. Blood pressure was recorded in real time.
Real-time blood pressure level was monitored after drug treatment in the acute and chronic experiments. All animals were surgically implanted with a catheter in the left femoral artery. After connection to the monitor, all animals were placed at room temperature of 25°C for 0.5–1 h and the average blood pressure value was calculated based on a real-time blood pressure curve (10 s of every 30 s).
After euthanizing the rats with sodium pentobarbital (100 mg kg^−1, i.p.) administration in combination with isoflurane inhalation, the aortas were harvested directly according to a previously described method. The aortas were fixed in 4% paraformaldehyde for 24 h and embedded in paraffin. The cross-sections (5 μm) were stained with hematoxylin and eosin or subjected to immunostaining. Immunofluorescence staining for ACE and ACE2 was performed according to the manufacturer’s instructions (Servicebio, Wuhan, China).

ACE2 [3] = test: ACE2 expression in aorta of SHRs (Western blot, tissue immunofluorescence); assay type: in vivo, rat; settings: oral 14 days
Text: as §2, with “The drugs were dissolved in 0.1% DMSO–0.9% salt solution for intravenous injection and in 5% Tween 80–0.9% salt solution for oral administration.” left out, “time. […]” for “time.”
as §1

CCN1CC2(COC)C(O)CC(OC)C34C5CC6(O)C(OC)C(O)C(O)(C5C6OC(=O)c5ccccc5)C(C(OC)C23)C14 (stereo not drawn) [BAC, Benzoylaconitine]
total NO level in serum (total NO): increase NO level | protein expression of ACE2 (ACE2 [1]): does not affect | blood pressure versus vehicle group ([2]; oral 3 mg kg^−1 once a day, 14 days): did not significantly differ | DBP ([2]; oral 10 mg kg^−1 once a day): 119 ± 8 mmHg | MAP ([2]; oral 10 mg kg^−1 once a day): 136 ± 7 mmHg | SBP ([2]; oral 10 mg kg^−1 once a day): 154 ± 6 mmHg | heart rate ([2]; oral 30 mg kg^−1 once a day, 14 days): reduce the heart rate | DBP ([2]; oral 30 mg kg^−1 once a day): 101 ± 7 mmHg | MAP ([2]; oral 30 mg kg^−1 once a day): 121 ± 6 mmHg | SBP ([2]; oral 30 mg kg^−1 once a day): 139 ± 6 mmHg | vascular smooth muscle thickness (hematoxylin and eosin stain of aorta) ([2]; oral administration, 14 days): reverse smooth muscle remodeling | ACE2 expression in the aorta (ACE2 [3]): no effect
